In publication PMC5921725 (Japanese Journal of Cancer Research : Gann, 1998):
Where two headings read alike, the source gives them in different places.

Legend:
[1] = target: T1, human P-gp (Homo sapiens, UniProt P08183); conditions: for effect on [14C]doxorubicin transport: LLC-GA5-COL150
[2] = target: T1, human P-gp
[3] = target: T1, human P-gp; conditions: 2 μM inhibitor, LLC-GA5-COL150, after last sampling (3 h)
[4] = system: P-gp; conditions: cited from earlier work
[5] = clinical trials, cited from earlier work
[6] = target: T1, human P-gp; assay: Transcellular transport of PSC833 in LLC-PK1 and LLC-GA5-COL150 cells

T1 sequence (P08183 whole entry): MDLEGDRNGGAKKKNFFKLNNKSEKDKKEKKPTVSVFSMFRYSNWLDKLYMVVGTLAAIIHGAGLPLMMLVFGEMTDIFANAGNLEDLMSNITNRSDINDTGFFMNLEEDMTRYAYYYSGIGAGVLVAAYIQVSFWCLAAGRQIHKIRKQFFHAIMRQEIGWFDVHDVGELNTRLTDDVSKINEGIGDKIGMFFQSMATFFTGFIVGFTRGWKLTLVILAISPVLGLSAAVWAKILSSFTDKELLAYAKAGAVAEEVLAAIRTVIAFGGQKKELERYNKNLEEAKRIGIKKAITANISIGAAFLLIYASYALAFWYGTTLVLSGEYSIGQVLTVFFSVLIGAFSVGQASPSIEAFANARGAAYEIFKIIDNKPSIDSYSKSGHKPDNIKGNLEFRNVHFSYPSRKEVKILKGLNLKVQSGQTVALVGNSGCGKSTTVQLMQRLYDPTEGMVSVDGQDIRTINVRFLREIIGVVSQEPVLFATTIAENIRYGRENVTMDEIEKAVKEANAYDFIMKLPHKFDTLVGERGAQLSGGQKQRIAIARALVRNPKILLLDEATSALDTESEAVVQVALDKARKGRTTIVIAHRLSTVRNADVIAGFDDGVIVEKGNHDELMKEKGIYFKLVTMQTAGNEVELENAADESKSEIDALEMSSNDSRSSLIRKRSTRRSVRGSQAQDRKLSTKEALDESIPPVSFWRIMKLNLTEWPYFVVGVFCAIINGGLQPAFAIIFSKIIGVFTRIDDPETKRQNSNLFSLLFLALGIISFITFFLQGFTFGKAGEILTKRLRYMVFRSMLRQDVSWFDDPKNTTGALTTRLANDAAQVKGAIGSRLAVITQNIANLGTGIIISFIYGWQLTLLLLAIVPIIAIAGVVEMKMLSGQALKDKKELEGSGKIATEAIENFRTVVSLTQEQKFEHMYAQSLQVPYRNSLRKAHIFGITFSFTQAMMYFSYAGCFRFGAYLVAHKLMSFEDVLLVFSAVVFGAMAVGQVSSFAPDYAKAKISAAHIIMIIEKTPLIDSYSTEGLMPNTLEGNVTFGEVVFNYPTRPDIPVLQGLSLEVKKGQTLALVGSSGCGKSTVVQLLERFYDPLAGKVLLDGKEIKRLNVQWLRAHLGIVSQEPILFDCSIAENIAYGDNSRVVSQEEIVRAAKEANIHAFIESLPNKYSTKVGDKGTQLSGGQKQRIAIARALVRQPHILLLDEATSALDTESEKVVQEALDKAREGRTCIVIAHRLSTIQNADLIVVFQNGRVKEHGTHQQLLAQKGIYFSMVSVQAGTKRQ

## C/C=C/C[C@@H](C)C(=O)[C@H]1C(=O)N[C@@H](C(C)C)C(=O)N(C)CC(=O)N(C)[C@@H](CC(C)C)C(=O)N[C@@H](C(C)C)C(=O)N(C)[C@@H](CC(C)C)C(=O)N[C@@H](C)C(=O)N[C@H](C)C(=O)N(C)[C@@H](CC(C)C)C(=O)N(C)[C@@H](CC(C)C)C(=O)N(C)[C@@H](C(C)C)C(=O)N1C [PSC833, [3′‐keto‐Bmt1]‐Val2]‐cyclosporin]
[1]; 0.1 μM inhibitor
  effect on [14C]doxorubicin transport: little inhibitory effect
[1]; Table I
  IC50 of PSC833 for [14C]doxorubicin transport as % of that of Cs-A: 10%
[1]; inhibitor concentrations greater than 0.5 μM
  effect on [14C]doxorubicin transport: strong inhibitory effect
[1]; ratio of IC50 values, Table I
  IC50 of PSC833 less than that of Cs-A for [14C]doxorubicin transport: ~10 fold
[2]; 2 μM inhibitor, LLC-GA5-COL150
  effect on [3H]vinblastine transport: almost completely inhibited
[2]; Table I
  IC50 of PSC833 for vinblastine transport as % of that of Cs-A: 20%
[2]; ratio of IC50 values, Table I
  IC50 of PSC833 less than that of Cs-A for [3H]vinblastine transport: about 5 fold
[3]
  intracellular accumulation of [3H]vinblastine: approached the control level
[4]
  more effective than Cs-A in displacing the photoactivatable cyclosporin analogue: approximately 2.5 fold
[5]
  concentrations at which the AUC of coadministered anticancer drugs increased: 1000 to 2000 ng/mL
[5]; combination therapy with PSC833 and doxorubicin
  increase in the AUC of doxorubicin: 20-199%
[6]; 10 μM PSC833, 3 and 6 h, 37C, HPLC-UV
  transported amount in LLC-GA5-COL150 cells compared with LLC-PK1 cells: approximately the same
[6]; LLC-GA5-COL150 vs LLC-PK1 monolayers, 10 μM, both directions
  transport by P-gp: not transported
